What was measured:
[1] = tested on: Mycobacterium tuberculosis; assay: Antimycobacterial activity against Mycobacterium tuberculosis H37Rv ATCC 27294 by microplate Alamar blue assay; format: functional, organism-based
[2] = Selectivity index, Ratio of CC50 for african green monkey Vero cells to IC90 for Mycobacterium tuberculosis H37Rv ATCC 27294; format: toxicity, cell-based
[3] = Cytotoxicity against african green monkey Vero cells after 72 hrs by Cell titer Glo luminescent cell viability assay; format: cell-based; settings: chlorocebus sabaeus

SMILES	IC50 [1] [µM]	IC90 [1] [µM]	selectivity ratio [2]	CC50 at 72 h [3] [µM]
COc1ccc2c(c1)[n+]([O-])c(C(=O)NCc1ccccc1)c(C)[n+]2[O-]	18.9	36.4		
Cc1c(C(=O)NCc2ccccc2)[n+]([O-])c2cc(Cl)ccc2[n+]1[O-]	1.1	1.25	> 231	> 291
Cc1ccc2c(c1)[n+]([O-])c(C(=O)NCc1ccccc1)c(C)[n+]2[O-]	8.35	13	> 23.8	> 309
Cc1c(C(=O)NCc2ccccc2)[n+]([O-])c2cc(C(F)(F)F)ccc2[n+]1[O-]	< 0.81	1.07	> 246	> 265
Cc1c(C(=O)NCc2ccccc2)[n+]([O-])c2cc(F)ccc2[n+]1[O-]	2.83	4.65	> 65.7	> 306
Cc1c(C(=O)NCc2ccccc2)[n+]([O-])c2ccccc2[n+]1[O-]	4.91	8.42	> 38.4	> 323
Cc1cc2c(cc1C)[n+]([O-])c(C(=O)NCc1ccccc1)c(C)[n+]2[O-]	90.8	296		
Cc1c(/C=N/NC(=O)c2ccncc2)[n+]([O-])c2ccccc2[n+]1[O-]	1.17	1.32	> 93	> 124
Cc1c(/C=N/NC(=O)c2ccncc2)[n+]([O-])c2cc(Cl)ccc2[n+]1[O-]	1.04	1.16	48.1	55.8
COc1ccc2c(c1)[n+]([O-])c(/C=N/NC(=O)c1ccncc1)c(C)[n+]2[O-]	< 0.59	50.6		
Cc1ccc2c(c1)[n+]([O-])c(/C=N/NC(=O)c1ccncc1)c(C)[n+]2[O-]	1.33	18.2	2.86	52.1
Cc1cc2c(cc1C)[n+]([O-])c(/C=N/NC(=O)c1ccncc1)c(C)[n+]2[O-]	1.22	2.57	> 43.5	> 124
Cc1c(/C=N/NC(=O)c2ccncc2)[n+]([O-])c2cc(F)ccc2[n+]1[O-]	< 0.58	23.1	3.31	76.5
Cc1c(/C=N/NC(=O)c2ccncc2)[n+]([O-])c2cc(C(F)(F)F)ccc2[n+]1[O-]	1.5	3.5	20	70
NNC(=O)c1ccncc1 [ISONIAZID]		0.21	> 20000	> 500
